The target in data set [1] is T1, Tyrosine-protein kinase Fyn (Homo sapiens, UniProt P06241). Nature of the data set: Inhibition of natural amyloid beta (1 to 42) -induced Fyn activation in hiPSC neural progenitor cells assessed as reduction in Fyn production at 10 uM preincubated fot 45 mins followed by amyloid beta addition and measured after 15 mins by DAPI/Alexa fluor 594 immunostaining based assay. Conditions: Induced pluripotent stem cell-derived neuron, time 60.0 min.
Target sequence in this assay (P06241 2-537 limits assumed): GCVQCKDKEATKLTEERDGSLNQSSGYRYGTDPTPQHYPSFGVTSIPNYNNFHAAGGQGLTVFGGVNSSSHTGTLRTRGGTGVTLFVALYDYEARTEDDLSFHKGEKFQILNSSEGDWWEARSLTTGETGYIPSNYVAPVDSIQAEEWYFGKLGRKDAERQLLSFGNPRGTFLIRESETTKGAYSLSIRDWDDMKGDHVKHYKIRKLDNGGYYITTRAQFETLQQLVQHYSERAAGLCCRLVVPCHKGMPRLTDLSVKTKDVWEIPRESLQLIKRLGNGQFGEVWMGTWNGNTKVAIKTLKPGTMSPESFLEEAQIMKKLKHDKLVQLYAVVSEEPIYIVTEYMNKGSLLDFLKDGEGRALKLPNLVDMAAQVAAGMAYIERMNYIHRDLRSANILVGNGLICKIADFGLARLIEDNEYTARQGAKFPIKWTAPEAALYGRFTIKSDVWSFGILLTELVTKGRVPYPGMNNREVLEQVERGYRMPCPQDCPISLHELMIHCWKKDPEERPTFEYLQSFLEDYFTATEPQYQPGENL

Data set [2] has as its target T1, Tyrosine-protein kinase Fyn. The data set is described as follows: Inhibition of basal Fyn activation in hiPSC neural progenitor cells assessed as reduction in pFyn levels in absence of amyloid beta at 10 uM by DAPI staining based immunofluorescence assay. Conditions: induced pluripotent stem cell-derived neuron.
Target sequence in this assay (P06241 whole entry): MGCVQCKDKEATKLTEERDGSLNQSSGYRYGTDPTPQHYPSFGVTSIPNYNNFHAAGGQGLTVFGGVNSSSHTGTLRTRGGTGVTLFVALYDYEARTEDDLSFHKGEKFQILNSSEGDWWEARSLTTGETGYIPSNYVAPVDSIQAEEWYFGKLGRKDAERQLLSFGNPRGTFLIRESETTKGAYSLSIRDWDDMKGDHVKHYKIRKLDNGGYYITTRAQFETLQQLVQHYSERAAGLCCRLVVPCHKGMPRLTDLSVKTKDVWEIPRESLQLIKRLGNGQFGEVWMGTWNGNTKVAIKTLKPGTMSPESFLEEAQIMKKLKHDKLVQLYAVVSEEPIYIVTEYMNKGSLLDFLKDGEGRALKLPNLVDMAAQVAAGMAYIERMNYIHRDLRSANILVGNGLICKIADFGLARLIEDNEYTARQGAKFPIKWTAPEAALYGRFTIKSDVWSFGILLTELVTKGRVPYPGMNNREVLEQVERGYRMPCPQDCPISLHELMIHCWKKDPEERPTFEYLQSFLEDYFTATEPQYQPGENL
Data set [3] concerns the target Amyloid-beta precursor protein (Homo sapiens) (UniProt P05067). The data set is described as follows: Inhibition of human amyloid beta (1 to 42) self-induced aggregation at 50 uM by Thioflavin T based fluorometric assay.
In data set [4] the target is T1, Tyrosine-protein kinase Fyn. Nature of the data set: Inhibition of amyloid beta-induced Fyn activation in hiPSC neural cells assessed as reduction in tau phosphorylation at Thr 181 residue at 10 uM measured after 4 days by DAPI/Alexa fluor 594 staining based immunocytochemistry analysis. Conditions: Induced pluripotent stem cell-derived neuron, time 4.0 day.
Target sequence in this assay (P06241 2-537 limits assumed): as the sequence (P06241 2-537 limits assumed) above
Data set [5] can be described thus: Cytotoxicity against hiPSC neural cells assessed as reduction in cell viability at 10 uM incubated for 24 hrs by MTT assay. Conditions: human, induced pluripotent stem cell-derived neuron. Format: cell-based. In general terms: Tetrazolium assays rely on reduction of a dye to a coloured formazan, in cell work by metabolically active cells.
Data set [6] addresses Acetylcholinesterase (Electrophorus electricus) (UniProt O42275). Nature of the data set: Inhibition of electric eel AChE at 100 uM using acetylthiocholine iodide as substrate by Ellman's colorimetric analysis relative to control. Background: DTNB colorimetry detects thiols as they appear.
Data set [7] concerns the target Cholinesterase (Equus caballus) (UniProt P81908). The data set is described as follows: Inhibition of equine serum BuChE at 100 uM using butyrylthiocholine iodide as substrate by Ellman's colorimetric analysis relative to control.
Data set [8] is described as follows: Octanol/water partition coefficient, log D of compound at pH 7.4 at 1 uM incubated for 2 hrs by LC-MS analysis. Format: physicochemical.
Data set [9] can be described thus: Aqueous solubility of the compound in 5 % DMSO at 50 to 100 uM incubated for 2 hrs. It is filed as physicochemical. The conditions noted are these: buffer, dose 50-100 µM.
Data set [10] can be described thus: Membrane retention of compound at pH 7.4 incubated for 16 hrs by PAMPA assay. It is filed as ADME. Conditions: pH 7.4, 16 h. Background: PAMPA measures passive passage across an artificial lipid membrane.
The nature of data set [11]: Membrane retention of compound assessed as partial membrane retention at pH 7.4 by LC-MS based PAMPA assay. It is filed as ADME.
The conditions of data set [12]: buffer, 100 µM.
A short description of data set [13]: Competitive inhibition of almond beta-glucosidase using p-nitrophenyl glycosides as substrate measured for 125 secs by spectrophotometry analysis. Further details: species or system Prunus dulcis.
In another data set the test system is Prunus dulcis. Nature of the data set: Competitive inhibition of almond beta-glucosidase at 100 uM using p-nitrophenyl glycosides as substrate measured for 125 secs by spectrophotometry analysis relative to control. Conditions: time 125.0 sec.
Another data set concerns Saccharomyces cerevisiae. The data set is described as follows: Uncompetitive inhibition of Saccharomyces cerevisiae alpha-glucosidase at 100 uM using p-nitrophenyl glycosides as substrate measured for 125 secs by spectrophotometry analysis relative to control. Conditions: time 125.0 sec.
Data set [14] in a line: Uncompetitive inhibition of Saccharomyces cerevisiae alpha-glucosidase assessed as inhibition constant for inhibitor-substrate-enzyme complex formation using p-nitrophenyl glycosides as substrate measured for 125 secs by spectrophotometry analysis.

Activity calls are given as the source filed them. The rule behind the calls is not given here.

By inhibition is commonly meant the percentage by which the read-out fell short of the control. By logD is commonly meant lipophilicity at a set pH, counting ionised and neutral species. As a reminder, the Ki is the dissociation constant of the complex between target and ligand, obtained from inhibition or displacement.

Chain of Cholinesterase (Equus caballus) (P81908 whole entry): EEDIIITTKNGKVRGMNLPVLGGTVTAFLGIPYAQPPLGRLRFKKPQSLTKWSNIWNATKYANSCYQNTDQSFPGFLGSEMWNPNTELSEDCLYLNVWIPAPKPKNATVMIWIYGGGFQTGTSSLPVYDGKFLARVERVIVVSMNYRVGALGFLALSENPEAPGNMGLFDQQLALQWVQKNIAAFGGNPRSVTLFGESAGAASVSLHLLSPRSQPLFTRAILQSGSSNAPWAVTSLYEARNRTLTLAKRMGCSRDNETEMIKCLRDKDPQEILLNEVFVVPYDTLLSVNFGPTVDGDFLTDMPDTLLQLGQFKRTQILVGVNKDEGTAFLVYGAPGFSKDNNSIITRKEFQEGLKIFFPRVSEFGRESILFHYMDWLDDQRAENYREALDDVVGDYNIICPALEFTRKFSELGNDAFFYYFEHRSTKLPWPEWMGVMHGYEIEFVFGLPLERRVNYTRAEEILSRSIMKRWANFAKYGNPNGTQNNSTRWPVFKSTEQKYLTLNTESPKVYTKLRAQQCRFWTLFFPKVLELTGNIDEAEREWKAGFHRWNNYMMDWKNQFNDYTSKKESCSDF
Chain of Acetylcholinesterase (Electrophorus electricus) (O42275 24-633 limits assumed): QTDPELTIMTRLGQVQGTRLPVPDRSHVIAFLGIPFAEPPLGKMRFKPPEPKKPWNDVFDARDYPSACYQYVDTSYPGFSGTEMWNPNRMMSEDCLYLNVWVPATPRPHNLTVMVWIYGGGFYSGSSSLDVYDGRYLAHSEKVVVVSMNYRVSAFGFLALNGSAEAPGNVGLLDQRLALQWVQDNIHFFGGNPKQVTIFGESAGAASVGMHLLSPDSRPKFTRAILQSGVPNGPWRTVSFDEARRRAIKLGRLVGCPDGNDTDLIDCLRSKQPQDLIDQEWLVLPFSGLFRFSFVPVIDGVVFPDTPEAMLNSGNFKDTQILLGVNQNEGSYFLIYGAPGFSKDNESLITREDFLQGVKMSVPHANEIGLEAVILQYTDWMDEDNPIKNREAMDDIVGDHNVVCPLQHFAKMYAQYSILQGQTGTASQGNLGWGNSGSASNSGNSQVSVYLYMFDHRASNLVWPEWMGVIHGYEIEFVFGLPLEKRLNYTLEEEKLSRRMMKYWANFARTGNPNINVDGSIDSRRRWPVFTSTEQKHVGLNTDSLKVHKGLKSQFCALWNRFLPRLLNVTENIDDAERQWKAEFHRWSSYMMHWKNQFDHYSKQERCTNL
Chain of Amyloid-beta precursor protein (Homo sapiens) (P05067 whole entry): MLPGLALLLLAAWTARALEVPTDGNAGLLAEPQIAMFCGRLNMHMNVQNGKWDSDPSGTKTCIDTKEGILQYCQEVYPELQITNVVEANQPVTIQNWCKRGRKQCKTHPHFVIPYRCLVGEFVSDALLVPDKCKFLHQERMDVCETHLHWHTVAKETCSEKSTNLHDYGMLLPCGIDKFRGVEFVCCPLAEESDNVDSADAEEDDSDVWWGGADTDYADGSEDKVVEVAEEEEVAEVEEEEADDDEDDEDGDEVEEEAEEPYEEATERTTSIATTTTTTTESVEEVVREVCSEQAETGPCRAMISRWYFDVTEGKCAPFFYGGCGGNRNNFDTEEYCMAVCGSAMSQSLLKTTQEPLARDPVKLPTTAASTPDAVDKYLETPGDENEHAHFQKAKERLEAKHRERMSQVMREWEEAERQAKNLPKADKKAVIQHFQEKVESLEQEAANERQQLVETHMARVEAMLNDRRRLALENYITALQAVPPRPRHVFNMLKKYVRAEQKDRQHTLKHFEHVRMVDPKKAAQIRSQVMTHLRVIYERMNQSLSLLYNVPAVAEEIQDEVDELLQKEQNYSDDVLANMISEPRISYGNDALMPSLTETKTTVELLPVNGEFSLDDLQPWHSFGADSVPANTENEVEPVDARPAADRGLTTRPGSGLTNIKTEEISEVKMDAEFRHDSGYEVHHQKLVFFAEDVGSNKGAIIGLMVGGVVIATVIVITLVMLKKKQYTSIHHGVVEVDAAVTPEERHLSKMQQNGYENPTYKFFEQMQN

On to `COC[C@H]1O[C@@H](c2ccc(OC(=O)c3ccccc3)c(OC(=O)c3ccccc3)c2)[C@H](OC)[C@@H](OC)[C@@H]1OC`, for which the inhibition entry in [1] and in data set [4] was “Active” in each case. Also, the “inhibition (INH)” value in data set [2] is listed as “Not Active”. The inhibition entry in data set [3] and in data set [6] was “inactive” each time. Further, the Activity entry in [5] is listed as “Non-Toxic”. In data set [7], this compound showed an inhibition of 12%. The logD at 2 h, 1 µM in data set [8] was more than 2.5. For the same compound, the solubility result in data set [9] and in [12] was “Insoluble” in each case. Moreover, the Drug uptake entry in data set [10] and in [11] was “Active” throughout.

`O=c1c(-c2ccc(O)cc2)coc2cc(O)cc(O)c12` [GENISTEIN]: the inhibition result in [1] and in [4] was “Active” each time. The Activity result in data set [5] is reported as “Non-Toxic”. Also, the inhibition came to 12% in data set [6], 41% in data set [7], 44% with Prunus dulcis and 84% in the data set on Saccharomyces cerevisiae. Further, the figures for the Ki in data set [13] and in data set [14] were 66 µM and 12 µM, respectively. For the same compound, in data set [8], the pH-dependent lipophilicity (logD) at 2 h, 1 µM was found to be 3.3.

Values taken from ChEMBL document CHEMBL4665828, “Glucosylpolyphenols as Inhibitors of Aβ-Induced Fyn Kinase Activation and Tau Phosphorylation: Synthesis, Membrane Permeability, and Exploratory Target Assessment within the Scope of Type 2 Diabetes and Alzheimer's Disease” (J Med Chem, 2020).
